Assay results taken from publication PMC5308254, “Bioactivity of Natural and Engineered Antimicrobial Peptides from Venom of the Scorpions Urodacus yaschenkoi and U. manicatus” (Toxins, 2017).
No end group written: not given here.

Assays:
L. grayi (DSM20601) = test: Growth inhibition assay (MIC), L. grayi; type: cell-based, Listeria grayi; conditions: 384-well plates, BHIB, 37 °C, peptide 0.015–250 µM; growth totally inhibited; average of n ≥ 3; dash = no inhibition
Description: (§1) The minimal inhibitory concentration (MIC) of each AMPs was determined against the Gram-positive bacteria Listeria monocytogenes (DSM20600), L. grayi (DSM20601), L. fleischmannii (DSM24998), Staphylococcus aureus (DSM2569) and Micrococcus luteus (DSM20030), and the Gram-negative species Escherichia coli (D31) and Pseudomonas aeruginosa (DSM50071). The scorpion peptides were prepared at concentrations of 0.015–250 μM. The assays were carried out in 384-well plates (Greiner Bio One, Frickenhausen, Germany) using Brain Heart Infusion Broth (BHIB) medium for Listeria spp., Tryptic Soy Broth (TSB) for S. aureus, and lysogeny broth (LB) for the others. The bacteria were cultivated overnight at either 37 °C (Listeria spp., S. aureus, E. coli and P. aeruginosa) or 30 °C (M. luteus) and subcultured in fresh media before the growth inhibition assays. Growth inhibition was measured as previously described.

[1] = system: Listeria monocytogenes (DSM20600); test: Growth inhibition assay (MIC), L. monocytogenes; type: cell-based; conditions: 384-well plates, BHIB, 37 °C, peptide 0.015–250 µM; growth totally inhibited; average of n ≥ 3; dash = no inhibition
Description: as §1

pig erythrocytes = test: Hemolytic activity on pig erythrocytes; type: cell-based; conditions: 1 h at 37 °C; for HC10 (hemolytic concentration) / HC90 (hemolytic concentration) / HC50 (hemolytic concentration): 6.25–100 µM, absorbance 570 nm, non-linear fit; for HC10 (hemolytic concentration) / HC90 (hemolytic concentration): n ≥ 3; for HC50 (hemolytic concentration): n ≥ 3, n.c. (100) = not convergent at 100 µM
Description: The hemolytic activity of each AMP was determined using pig erythrocytes. Serial dilutions (6.25–100 µM) of each AMP were prepared, and after incubation for 1 h at 37 °C the cells were centrifuged and the absorbance of the supernatant was measured at 570 nm using an Eon Microplate Spectrophotometer (BioTek Instruments, Winooski, VT, USA). Three independent experiments were carried out for each concentration in triplicate. PBS and 10% Triton X–100 were used as negative and positive controls, respectively. The percentage hemolysis was calculated using the formula 100((Apeptide–APBS)/(Atriton–APBS)). The AMP concentration causing 50% hemolysis (HC50) of the pig erythrocytes was determined by non-linear regression with the data fitted to the logistical sigmoidal equation, using GraphPad Prism v5.0 (GraphPad Software, San Diego, CA, USA) (Figure S2).

[2] = system: L. fleischmannii (DSM24998); test: Growth inhibition assay (MIC), L. fleischmannii; type: cell-based, Listeria fleischmannii; conditions: 384-well plates, BHIB, 37 °C, peptide 0.015–250 µM; growth totally inhibited; average of n ≥ 3; dash = no inhibition
Description: as §1

seven different bacteria = test: Antibacterial activity against all seven bacteria tested (summary); type: cell-based; conditions: approximate overall value
Description: as §1

Escherichia coli (D31) = test: Growth inhibition assay (MIC), E. coli; type: cell-based; conditions: 384-well plates, LB, 37 °C, peptide 0.015–250 µM; growth totally inhibited; average of n ≥ 3; dash = no inhibition
Description: as §1

[3] = system: baby hamster kidney cells (BHK21); test: Cytotoxicity, alamarBlue, BHK-21 cells; type: cell-based; conditions: 2 h at 37 °C, 0.1–100 µM, alamarBlue fluorescence, non-linear fit, n ≥ 3
Description: (§2) Cytotoxicity was evaluated using the baby hamster kidney cell line (BHK-21) included in F2H®-Kit Basic (Chromotek, Planegg-Martinsried, Germany). The BHK-21 cells were grown in 25-cm^2 cell culture flasks (Greiner Bio One, Frickenhausen, Germany) containing Dulbecco’s Modified Eagle’s Medium (DMEM) supplemented with 4.5 g/L glucose, 110 mg/L sodium pyruvate and L-glutamine, and 10% fetal bovine serum (FBS), and were maintained in an NU-5810 incubator (ibs tecnomara, Fernwald, Germany) at 37 °C with a 5% CO2 atmosphere. The cells were subcultured at ~90% confluence by detaching with 0.25% trypsin and 0.03% EDTA (Sigma-Aldrich, St Louis, MO, USA). The AMPs were dissolved in water and diluted to final concentrations of 0.1, 1, 10 and 100 µM in DMEM.
(§3) BHK-21 cells were prepared and tested as previously described. Confluent cells were detached, counted and seeded at a concentration of 8.5 × 10^4 cell/mL in a 96-well culture plate (Greiner Bio One-Cell Star) 48 h before each experiment. The cells were rinsed with 100 µL PBS before adding 100 µL of the AMP solution and incubating for 2 h at 37 °C. The AMP solution was then removed and the cells were rinsed again with PBS before staining with 10% v/v alamarBlue™ Dye (Thermo Fisher Scientific, Schwerte, Germany) in DMEM for 1 h. The fluorescence of the metabolized alamarBlue™ Dye was measured in an Eon microplate reader using excitation and emission filters of 528 and 590 nm, respectively. DMEM and cells exposed to DMEM without AMPs were included as a blank reference and negative control, respectively. Four independent experiments were carried out for each AMP concentration in triplicate. To assess the percentage of viable cells compared to the control, the data were analyzed with GraphPad Prism v5.0 software using non-linear regression to fit the curve (Figure S2). The EC50 was reported as the AMP concentration that reduces cell viability by 50%.

[4] = Cytotoxicity, alamarBlue, BHK-21 cells; type: cell-based, hamster; conditions: hamster, 2 h at 37 °C, 0.1–100 µM, alamarBlue fluorescence, non-linear fit, concentration reducing viability by 50%, n ≥ 3, read-out: EC50 (effective cytotoxic concentration)
Description: as §2, §3

[5] = system: Pseudomonas aeruginosa (DSM50071); test: Growth inhibition assay (MIC), P. aeruginosa; type: cell-based; conditions: LB, 37 °C, highest concentration tested 250 µM
Description: as §1

[6] = system: Micrococcus luteus (DSM20030); test: Growth inhibition assay (MIC), M. luteus; type: cell-based; conditions: 384-well plates, LB, 30 °C, peptide 0.015–250 µM; MIC = concentration at which growth was totally inhibited; average of n ≥ 3; dash = no inhibition
Description: as §1

GFWGKLWEGVKNAI-NH2 [UyCT1]
MIC L. grayi (L. grayi (DSM20601)): 4 µM | MIC L. monocytogenes [1]: 4 µM | HC10 (hemolytic concentration) (pig erythrocytes): 31.5 µM | HC90 (hemolytic concentration) (pig erythrocytes): 644.46 µM | HC50 (hemolytic concentration) (pig erythrocytes): 142.5 µM | MIC L. fleischmannii [2]: 4 µM | MIC against all seven bacteria tested (seven different bacteria): ~ 4 µM | MIC E. coli (Escherichia coli (D31)): 4 µM | EC10 (effective cytotoxic concentration) [3]: 0.65 µM | EC90 (effective cytotoxic concentration) [3]: 52.12 µM | CC50 at 2 h [4]: 17.4 µM | MIC P. aeruginosa (concentration inhibiting growth) [5]: 60 µM | MIC M. luteus [6]: 1 µM

GFWGKLWEGVKNAIKKK-NH2 [D11]
MIC L. grayi (L. grayi (DSM20601)): 1 µM | MIC L. monocytogenes [1]: 2 µM | percentage of hemolysis (pig erythrocytes; 100 µM peptide (highest tested), 10% Triton X-100 = 100% hemolysis): ~ 10% | HC10 (hemolytic concentration) (pig erythrocytes): 39.76 µM | HC90 (hemolytic concentration) (pig erythrocytes): 30,984.53 µM | HC50 (hemolytic concentration) (pig erythrocytes): 1110 µM | MIC L. fleischmannii [2]: 1 µM | MIC against all seven bacteria tested (seven different bacteria): ~ 1 µM | MIC E. coli (Escherichia coli (D31)): 4 µM | EC10 (effective cytotoxic concentration) [3]: 0.66 µM | EC90 (effective cytotoxic concentration) [3]: 53.43 µM | CC50 at 2 h [4]: 17.8 µM | MIC P. aeruginosa (concentration inhibiting growth) [5]: 30 µM | MIC M. luteus [6]: 0.25 µM
